Reference: patent publication US10716821B2, “Use of plant extracts against herpes simplex virus” (UNIVERSITÉ DU QUÉBEC À CHICOUTIMI, priority 2013, dated 2020)

System: HSV-1
Assay: HSV-1 plaque reduction, method D: replication period
Assay type: cell-based, herpes simplex virus type-1
Protocol: Plaque assays were performed with monolayer cultures of Vero cells in 24-well culture plates. For plaque reduction assay, cell monolayer was infected with virus (30 pfu/well) and incubated at 37° C. with 5% CO2 for one hour. The infected cell monolayer was then washed with PBS and overlaid with overlapping solution (maintenance medium containing 1% methylcellulose and various concentrations of indicated compounds). After 72 h of incubation at 37° C., cell monolayer was fixed with 5% paraformaldehyde and stained with 0.8% crystal violet. Plaques were counted and the percentage of inhibition was calculated as [(Pc−Pe)/Pc]100, where Pc and Pe refer to the plaque number in the absence and presence of the compound, respectively. The minimal concentration of compounds required to reduce 50% of plaque numbers (IC50) was also calculated. Cells and viruses (HSV-1) were incubated with acyclovir and various extracts at different stages during the viral infection cycle in order to determine the antiviral action mode (Koch et al., 2008). (A) For virus pretreatment assay, the virus suspension was incubated in a medium containing different concentrations of the extracts for one hour at 37° C. prior to infection of Vero cells. […] The antiviral activity of non-cytotoxic plant extracts was determined against HSV-1 in vitro. […] Then, the cells were washed and quantified using resazurin.

Structure (SMILES): Nc1nc2c(ncn2COCCO)c(=O)[nH]1 [Acyclovir]
- inhibition at 100 µg/mL (Human alphaherpesvirus 1, 72 h, at 100 μg/ml, replication period (extracts added after infection, stay 3 days on cells), Vero cells, read-out: Inhibitory percentage of lysis plaques, D): 100%
- Protection of VERO cells against infection (positive control) (dose of 0.75 μg/ml): protects VERO cells against infection
